# Assays:
# rape = experiment: Test B pre/postemergence rape; type: in vivo, Brassica napus
# Outline: (§1)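 Herbicidal effect was estimated by eye on a ten-point control scale after plants spent twelve to sixteen days in a greenhouse following soil or foliar treatment. Foliar sprays targeted plants at one to four leaves; all doses were formulated in a non-phytotoxic solvent with surfactant.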
# wild oat = experiment: Test B pre/postemergence wild oat; type: in vivo, Avena fatua
# Outline: as §1
# sugar beet = experiment: Test B pre/postemergence sugar beet; type: in vivo, Beta vulgaris
# Outline: as §1
# giant foxtail = experiment: Test B pre/postemergence giant foxtail; type: in vivo, Setaria faberii
# Outline: as §1
# crabgrass = experiment: Test B pre/postemergence crabgrass; type: in vivo, Digitaria sanguinalis
# Outline: as §1
# bedstraw = experiment: Test B pre/postemergence bedstraw; type: in vivo, Galium aparine
# Outline: as §1
# pigweed = experiment: Test B pre/postemergence pigweed; type: in vivo, Amaranthus retroflexus
# Outline: as §1
# soybean = experiment: Test B pre/postemergence soybean; type: in vivo, Glycine max
# Outline: as §1
# velvetleaf = experiment: Test B pre/postemergence velvetleaf; type: in vivo, Abutilon theophrasti
# Outline: as §1
# purple nutsedge = experiment: Test B pre/postemergence purple nutsedge; type: in vivo, Cyperus rotundus
# Outline: as §1
# morningglory = experiment: Test B pre/postemergence morningglory; type: in vivo, Ipomoea hederacea
# Outline: as §1
# corn = experiment: Test B pre/postemergence corn; type: in vivo, Zea mays
# Outline: as §1
# cocklebur = experiment: Test B pre/postemergence cocklebur; type: in vivo, Xanthium strumarium
# Outline: as §1
# surinam grass = experiment: Test B pre/postemergence surinam grass; type: in vivo, Brachiaria decumbens
# Outline: as §1
# wheat = experiment: Test B pre/postemergence wheat; type: in vivo, Triticum aestivum
# Outline: as §1
# blackgrass = experiment: Test B pre/postemergence blackgrass; type: in vivo, Alopecurus myosuroides
# Outline: as §1
# [1] = Postemergence, Rate 62 g/ha, scale 0 to 10, 0 is no effect, 10 is complete control
# [2] = Postemergence, Rate 125 g/ha, scale of 0 to 10 where 0 is no effect and 10 is complete control
# [3] = Preemergence, Rate 125 g/ha, scale of 0 to 10 where 0 is no effect and 10 is complete control
# [4] = Preemergence, Rate 250 g/ha, scale 0 (no effect) to 10 (complete control)
# [5] = Rate 62 g/ha, Preemergence, scale 0 to 10
# [6] = Rate 250 g/ha, Postemergence, scale 0 to 10, 0 is no effect, 10 is complete control
# [7] = Rate 500 g/ha, Postemergence, scale 0 to 10, 0 is no effect, 10 is complete control
# [8] = Rate 500 g/ha, Preemergence, scale 0 to 10 (0 no effect, 10 complete control)
smiles,measurement,setting,value
C#CCn1c(=O)on(C(=O)N(c2ccc(F)cc2)C(C)C)c1=O [Compound 743],"Plant response rating, Rape",rape; [1],0
same,Rape plant response rating,rape; [2],0
same,"Plant response rating, Rape",rape; [3],5
same,Rape plant response rating,rape; [4],9
same,Rape plant response rating,rape; [5],5
same,Rape plant response rating,rape; [6],0
same,Rape plant response rating,rape; [7],3
same,Rape plant response rating,rape; [8],9
same,"Plant response rating, Wild oats",wild oat; [1],0
same,Wild oats plant response rating,wild oat; [2],0
same,"Plant response rating, Wild oats",wild oat; [3],5
same,Wild oats plant response rating,wild oat; [4],5
same,Wild oats plant response rating,wild oat; [5],5
same,Wild oats plant response rating,wild oat; [6],0
same,Wild oats plant response rating,wild oat; [7],3
same,Wild oats plant response rating,wild oat; [8],9
same,"Plant response rating, Sugarbeets",sugar beet; [1],0
same,Sugarbeets plant response rating,sugar beet; [2],0
same,"Plant response rating, Sugarbeets",sugar beet; [3],2
same,Sugarbeets plant response rating,sugar beet; [4],4
same,Sugarbeets plant response rating,sugar beet; [5],0
same,Sugarbeets plant response rating,sugar beet; [6],4
same,Sugarbeets plant response rating,sugar beet; [7],4
same,Sugarbeets plant response rating,sugar beet; [8],6
same,"Plant response rating, Giant foxtail",giant foxtail; [1],7
same,Giant foxtail plant response rating,giant foxtail; [2],7
same,"Plant response rating, Giant foxtail",giant foxtail; [3],9
same,Giant foxtail plant response rating,giant foxtail; [4],9
same,Giant foxtail plant response rating,giant foxtail; [5],9
same,Giant foxtail plant response rating,giant foxtail; [6],8
same,Giant foxtail plant response rating,giant foxtail; [7],8
same,Giant foxtail plant response rating,giant foxtail; [8],9
same,"Plant response rating, Crabgrass",crabgrass; [1],2
same,Crabgrass plant response rating,crabgrass; [2],5
same,"Plant response rating, Crabgrass",crabgrass; [3],9
same,Crabgrass plant response rating,crabgrass; [4],9
same,Crabgrass plant response rating,crabgrass; [5],9
same,Crabgrass plant response rating,crabgrass; [6],7
same,Crabgrass plant response rating,crabgrass; [7],9
same,Crabgrass plant response rating,crabgrass; [8],9
same,"Plant response rating, Bedstraw",bedstraw; [1],0
same,Bedstraw plant response rating,bedstraw; [2],0
same,"Plant response rating, Bedstraw",bedstraw; [3],0
same,Bedstraw plant response rating,bedstraw; [4],0
same,Bedstraw plant response rating,bedstraw; [5],0
same,Bedstraw plant response rating,bedstraw; [6],4
same,Bedstraw plant response rating,bedstraw; [7],8
same,Bedstraw plant response rating,bedstraw; [8],8
same,"Plant response rating, Redroot pigweed",pigweed; [1],0
same,Redroot pigweed plant response rating,pigweed; [2],0
same,"Plant response rating, Redroot pigweed",pigweed; [3],9
same,Redroot pigweed plant response rating,pigweed; [4],9
same,Redroot pigweed plant response rating,pigweed; [5],7
same,Redroot pigweed plant response rating,pigweed; [6],5
same,Redroot pigweed plant response rating,pigweed; [7],8
same,Redroot pigweed plant response rating,pigweed; [8],10
same,"Plant response rating, Soybean",soybean; [1],0
same,Soybean plant response rating,soybean; [2],0
same,"Plant response rating, Soybean",soybean; [3],0
same,Soybean plant response rating,soybean; [4],0
same,Soybean plant response rating,soybean; [5],0
same,Soybean plant response rating,soybean; [6],4
same,Soybean plant response rating,soybean; [7],4
same,Soybean plant response rating,soybean; [8],0
same,"Plant response rating, Velvetleaf",velvetleaf; [1],0
same,Velvetleaf plant response rating,velvetleaf; [2],0
same,"Plant response rating, Velvetleaf",velvetleaf; [3],2
same,Velvetleaf plant response rating,velvetleaf; [4],3
same,Velvetleaf plant response rating,velvetleaf; [5],0
same,Velvetleaf plant response rating,velvetleaf; [6],0
same,Velvetleaf plant response rating,velvetleaf; [7],4
same,Velvetleaf plant response rating,velvetleaf; [8],3
same,"Plant response rating, Nutsedge",purple nutsedge; [1],0
same,Nutsedge plant response rating,purple nutsedge; [2],2
same,Nutsedge plant response rating,purple nutsedge; [4],2
same,Nutsedge plant response rating,purple nutsedge; [5],0
same,Nutsedge plant response rating,purple nutsedge; [6],3
same,Nutsedge plant response rating,purple nutsedge; [7],9
same,Nutsedge plant response rating,purple nutsedge; [8],9
same,"Plant response rating, Morningglory",morningglory; [1],5
same,Morningglory plant response rating,morningglory; [2],3
same,"Plant response rating, Morningglory",morningglory; [3],0
same,Morningglory plant response rating,morningglory; [4],0
same,Morningglory plant response rating,morningglory; [5],0
same,Morningglory plant response rating,morningglory; [6],2
same,Morningglory plant response rating,morningglory; [7],10
same,Morningglory plant response rating,morningglory; [8],0
same,"Plant response rating, Corn",corn; [1],0
same,Corn plant response rating,corn; [2],0
same,"Plant response rating, Corn",corn; [3],0
same,Corn plant response rating,corn; [4],0
same,Corn plant response rating,corn; [5],0
same,Corn plant response rating,corn; [6],0
same,Corn plant response rating,corn; [7],0
same,Corn plant response rating,corn; [8],0
same,"Plant response rating, Cocklebur",cocklebur; [1],0
same,Cocklebur plant response rating,cocklebur; [2],0
same,"Plant response rating, Cocklebur",cocklebur; [3],0
same,Cocklebur plant response rating,cocklebur; [4],0
same,Cocklebur plant response rating,cocklebur; [5],0
same,Cocklebur plant response rating,cocklebur; [6],0
same,Cocklebur plant response rating,cocklebur; [7],3
same,Cocklebur plant response rating,cocklebur; [8],10
same,"Plant response rating, B. signalgrass",surinam grass; [1],0
same,B. signalgrass plant response rating,surinam grass; [2],0
same,"Plant response rating, B. signalgrass",surinam grass; [3],3
same,B. signalgrass plant response rating,surinam grass; [4],4
same,B. signalgrass plant response rating,surinam grass; [6],3
same,B. signalgrass plant response rating,surinam grass; [7],7
same,B. signalgrass plant response rating,surinam grass; [8],8
same,"Plant response rating, Wheat",wheat; [1],0
same,Wheat plant response rating,wheat; [2],0
same,"Plant response rating, Wheat",wheat; [3],0
same,Wheat plant response rating,wheat; [4],0
same,Wheat plant response rating,wheat; [5],0
same,Wheat plant response rating,wheat; [6],3
same,Wheat plant response rating,wheat; [7],6
same,Wheat plant response rating,wheat; [8],5
same,"Plant response rating, Blackgrass",blackgrass; [1],3
same,Blackgrass plant response rating,blackgrass; [2],5
same,"Plant response rating, Blackgrass",blackgrass; [3],8
same,Blackgrass plant response rating,blackgrass; [4],9
same,Blackgrass plant response rating,blackgrass; [5],8
same,Blackgrass plant response rating,blackgrass; [6],5
same,Blackgrass plant response rating,blackgrass; [7],5
same,Blackgrass plant response rating,blackgrass; [8],9

# — patent US6737383B1, “Herbicidal oxadiazolidines” (priority 1999, dated 2004)
